Tests used:
Carbonic anhydrase 1 = Carbonic anhydrase 1 (Homo sapiens, UniProt P00915)
Carbonic anhydrase 2 = Carbonic anhydrase 2 (Homo sapiens, UniProt P00918)
Carbonic anhydrase 9 = Carbonic anhydrase 9 (Homo sapiens, UniProt Q16790)

Sequence of Carbonic anhydrase 1 (P00915 whole entry): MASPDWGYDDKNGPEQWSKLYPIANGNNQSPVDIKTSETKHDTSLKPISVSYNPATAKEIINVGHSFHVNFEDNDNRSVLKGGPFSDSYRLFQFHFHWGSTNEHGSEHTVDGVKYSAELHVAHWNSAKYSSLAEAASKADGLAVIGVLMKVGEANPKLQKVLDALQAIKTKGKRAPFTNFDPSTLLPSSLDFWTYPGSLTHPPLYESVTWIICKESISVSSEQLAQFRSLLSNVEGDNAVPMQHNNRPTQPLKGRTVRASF

| Structure (SMILES) | Ki (Carbonic anhydrase 1) | Ki (Carbonic anhydrase 2) | Ki (Carbonic anhydrase 9) |
| --- | --- | --- | --- |
| NS(=O)(=O)c1ccc(-c2cn(C3O[C@H](CO)[C@@H](O)[C@H](O)[C@@H]3O)nn2)cc1 (single isomer, unassigned) | 2.8 nM | 7.6 nM | 5.4 nM |
| COC(=O)[C@H]1O[C@@H](n2cc(-c3ccc(S(N)(=O)=O)cc3)nn2)[C@H](OC(C)=O)[C@@H](OC(C)=O)[C@@H]1OC(C)=O | – | – | 9.9 nM |
| CC(=O)N[C@@H]1[C@@H](OC(C)=O)[C@H](OC(C)=O)[C@@H](COC(C)=O)O[C@H]1n1cc(-c2ccc(S(N)(=O)=O)cc2)nn1 | – | – | 101 nM |
| NS(=O)(=O)c1ccc(-c2cn([C@@H]3O[C@H](CO)[C@@H](O)[C@H]3O)nn2)cc1 | – | – | 121 nM |
| CC(=O)OC[C@H]1O[C@@H](n2cc(-c3ccc(S(N)(=O)=O)cc3)nn2)[C@H](OC(C)=O)[C@@H](OC(C)=O)[C@H]1OC(C)=O | 4300 nM | 8.7 nM | 110 nM |
| COC(=O)[C@H]1O[C@@H](n2cc(-c3ccc(S(N)(=O)=O)cc3)nn2)[C@H](O)[C@@H](O)[C@@H]1O | – | – | 8.4 nM |
| CC(=O)OC[C@H]1O[C@@H](n2cc(-c3ccc(S(N)(=O)=O)cc3)nn2)[C@H](OC(C)=O)[C@@H](OC(C)=O)[C@@H]1OC(C)=O | 4400 nM | 9.1 nM | – |
| CC(=O)OC[C@H]1OC(n2cc(-c3ccc(S(N)(=O)=O)cc3)nn2)[C@@H](OC(C)=O)[C@@H](OC(C)=O)[C@@H]1OC(C)=O (single isomer, unassigned) | 1.6 nM | 2.1 nM | 5 nM |
| CC(=O)OC[C@H]1O[C@@H](n2cc(-c3ccc(S(N)(=O)=O)cc3)nn2)[C@H](OC(C)=O)[C@@H](OC(C)=O)[C@@H]1O[C@H]1O[C@H](COC(C)=O)[C@@H](OC(C)=O)[C@H](OC(C)=O)[C@H]1OC(C)=O | – | – | 120 nM |
| NS(=O)(=O)c1ccc(-c2cn([C@@H]3O[C@H](CO)[C@@H](O)[C@H](O)[C@H]3O)nn2)cc1 | 9.4 nM | 380 nM | 89 nM |
| NS(=O)(=O)c1ccc(-c2cn([C@@H]3O[C@H](CO)[C@@H](O[C@H]4O[C@H](CO)[C@@H](O)[C@H](O)[C@H]4O)[C@H](O)[C@H]3O)nn2)cc1 | – | – | 130 nM |
| NS(=O)(=O)c1ccc(-c2cn([C@@H]3O[C@H](CO)[C@H](O)[C@H](O)[C@H]3O)nn2)cc1 | 9.3 nM | 8.8 nM | 120 nM |
| CC(=O)O[C@H]1[C@H](OC(C)=O)C(n2cc(-c3ccc(S(N)(=O)=O)cc3)nn2)OC[C@H]1OC(C)=O (single isomer, unassigned) | – | – | 134 nM |

— ChEMBL document CHEMBL1142323, “Inhibition of carbonic anhydrases with glycosyltriazole benzene sulfonamides” (J Med Chem, 2008)
